# Assay results taken from patent US9409952B2, “Peptide-compound cyclization method” (Chugai Seiyaku Kabushiki Kaisha, priority 2011, dated 2016).
# Like-named read-outs stand apart in the source and are kept apart here. Starred links: 1 amine or outer side, 2 acyl side, 3 side chain; linkers in the order of their positions; H or OH if unused. Non-standard residues stand in square brackets, D forms with d. Residues, ends and D or L forms follow the SMILES beside them. *: point of attachment. Phe(4-CF3) = N[C@@H](Cc1ccc(C(F)(F)F)cc1)C(=O)O; NMePhe(3-Cl) = CN[C@@H](Cc1cccc(Cl)c1)C(=O)O; NMeF = CN[C@@H](Cc1ccccc1)C(=O)O; NMeGABA = CN(CCCC(=O)[*:2])[*:1]; NMeI = CC[C@H](C)[C@H](NC)C(=O)O; NMeβAla = CN(CCC(=O)[*:2])[*:1]; Aoc(2) = CCCCCC[C@H](N)C(=O)O; NMeL = CN[C@@H](CC(C)C)C(=O)O; NMeV = CN[C@H](C(=O)O)C(C)C; NMeA = CN[C@@H](C)C(=O)O; dNMeA = CN[C@H](C)C(=O)O; β3hA = C[C@H](N)CC(=O)O; Sar = CNCC(=O)O; tBu = CC(C)(C)*
# Key:
# [1] = Metabolic stability in human hepatic microsome; assay type: in vitro ADME; conditions: microsomes
# [2] = PAMPA (parallel artificial membrane permeability assay); assay type: in vitro ADME; conditions: for Papp at 18 hours, 50 µM: PAMPA
# In short: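 Artificial membrane was 10% (w/v) egg lecithin plus 0.5% (w/v) cholesterol in dodecane on a PVDF filter. A 10 mM DMSO stock was added at 0.5% (v/v) to donor buffer (50 mM MOPSO, pH 6.5, 5.0% glycocholic acid). After 18 h at 37 °C, LC/MS or LC/UV gave donor and acceptor levels for Pe.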
# [3] = pH 7.4, human hepatic microsome, NADPH(+), read-out: CL NADPH(+)
# [4] = membrane permeation rate (Pe), 50 mM MOPSO buffer pH 6.5 with 5.0% glycocholic acid, 37° C., 18 hours
# [5] = membrane permeation rate (Pe), 50 mM MOPSO buffer pH 6.5 with 5.0% glycocholic acid, 37° C., 18 hours, read-out: iPAMPA Pe
Compound,"microsomal CLint at 1 uM ([1]; human, pH 7.4, CL NADPH(+)) [µL/min/mg]","Papp at 18 hours, 50 µM ([2]; pH 6.5) [×10⁻⁶ cm/s]","microsomal CLint at 1 uM [1, 3] [µL/min/mg]","iPAMPA Pe [2, 4]","Papp at 18 hours, 50 µM [2, 5] [×10⁻⁶ cm/s]"
CC[C@H](C)[C@@H]1NC(=O)[C@H](C)NC(=O)C[C@H](C)NC(=O)[C@H](CC(C)C)NC(=O)[C@H](CC(C)C)NC(=O)[C@H](C(C)C)NC(=O)[C@H](C)N(C)C(=O)[C@H](Cc2ccc(C(F)(F)F)cc2)NC(=O)CNC(=O)[C@H]([C@@H](C)O)NC(=O)[C@H](CC(C)C)N(C)C(=O)[C@@H]2CCCN2C1=O [DP-807] (cyclo(AIP[NMeL]TG[Phe(4-CF3)][NMeA]VLL[β3hA])),81,15,–,–,–
CC[C@H](C)[C@@H]1NC(=O)[C@H](C)NC(=O)C[C@H](C)NC(=O)[C@H](CC(C)C)NC(=O)[C@H](CC(C)C)NC(=O)[C@H](C(C)C)NC(=O)[C@H](C)N(C)C(=O)[C@H](CC(C)C)NC(=O)CNC(=O)[C@H]([C@@H](C)O)NC(=O)[C@H](CC(C)C)N(C)C(=O)[C@@H]2CCCN2C1=O [DP-808] (cyclo(AIP[NMeL]TGL[NMeA]VLL[β3hA])),33,3.3,–,–,–
CC(C)C[C@H]1C(=O)N(C)[C@@H](CC(C)C)C(=O)N[C@@H]([C@@H](C)O)C(=O)N(C)[C@@H](Cc2cccc(Cl)c2)C(=O)NCC(=O)N(C)[C@@H](C(C)C)C(=O)N[C@@H](Cc2ccc(C(F)(F)F)cc2)C(=O)N[C@@H](C)CC(=O)N(C)CCC(=O)N[C@@H](COC(C)(C)C)C(=O)N1C [DP-809] (cyclo(G[NMeV][Phe(4-CF3)][β3hA][NMeβAla]S(tBu)[NMeL][NMeL]T[NMePhe(3-Cl)])),–,–,201,7.0E−05,–
CC[C@H](C)[C@H]1C(=O)NCC(=O)N(C)[C@@H](C)C(=O)N[C@@H](CC(C)C)C(=O)N[C@@H](C)CC(=O)N(C)[C@@H](C)C(=O)N[C@@H](CC(C)C)C(=O)N(C)[C@@H](C)C(=O)N[C@@H]([C@@H](C)O)C(=O)N2CCC[C@H]2C(=O)N(C)[C@@H](Cc2cccc(Cl)c2)C(=O)N[C@@H](Cc2ccc(C(F)(F)F)cc2)C(=O)N1C [DP-810] (cyclo(G[NMeA]L[β3hA][NMeA]L[NMeA]TP[NMePhe(3-Cl)][Phe(4-CF3)][NMeI])),46,14,–,–,–
CC[C@H](C)[C@@H]1NC(=O)[C@H](C)N(C)C(=O)[C@@H](C)N(C)C(=O)C[C@H](C)NC(=O)[C@H](CC(C)C)N(C)C(=O)[C@H](C)N(C)C(=O)[C@H](Cc2cccc(Cl)c2)N(C)C(=O)[C@H]([C@@H](C)O)NC(=O)[C@H](Cc2cccc(Cl)c2)N(C)C(=O)[C@H](CC(C)C)N(C)C1=O [DP-811] (cyclo(I[NMeL][NMePhe(3-Cl)]T[NMePhe(3-Cl)][NMeA][NMeL][β3hA][dNMeA][NMeA])),–,–,241,7.0E−05,–
CC[C@H](C)[C@@H]1NC(=O)[C@H](CC(C)C)N(C)C(=O)[C@H](Cc2cccc(Cl)c2)N(C)C(=O)[C@@H](C(C)C)NC(=O)C[C@H](C)NC(=O)[C@H](CC(C)C)N(C)C(=O)[C@H](C)N(C)C(=O)[C@H]([C@@H](C)O)NC(=O)[C@H](Cc2cccc(Cl)c2)N(C)C(=O)[C@H](C)N(C)C1=O [DP-812] (cyclo(I[NMeA][NMePhe(3-Cl)]T[NMeA][NMeL][β3hA][dV][NMePhe(3-Cl)][NMeL])),–,–,222,–,34
CC[C@H](C)[C@@H]1NC(=O)[C@H](CC(C)C)N(C)C(=O)[C@H](CC(C)C)N(C)C(=O)[C@@H](C(C)C)NC(=O)C[C@H](C)NC(=O)[C@H](CC(C)C)N(C)C(=O)[C@H](C)N(C)C(=O)[C@H]([C@@H](C)O)NC(=O)[C@H](CC(C)C)N(C)C(=O)[C@H](C)N(C)C1=O [DP-813] (cyclo(I[NMeA][NMeL]T[NMeA][NMeL][β3hA][dV][NMeL][NMeL])),–,–,195,–,30
CC(C)C[C@@H]1NC(=O)[C@H](C)NC(=O)C[C@H](C)NC(=O)[C@H](C(C)C)N(C)C(=O)[C@H](Cc2ccc(C(F)(F)F)cc2)NC(=O)[C@H](CC(C)C)N(C)C(=O)[C@H]([C@@H](C)O)NC(=O)[C@H](Cc2ccc(C(F)(F)F)cc2)NC(=O)[C@H](C)N(C)C(=O)CNC(=O)[C@H](CC(C)C)N(C)C(=O)[C@H](C)N(C)C1=O [DP-814] (cyclo(AL[NMeA][NMeL]G[NMeA][Phe(4-CF3)]T[NMeL][Phe(4-CF3)][NMeV][β3hA])),–,–,22,–,57
CC[C@H](C)[C@H]1C(=O)NCC(=O)N[C@@H](C)CC(=O)N(C)[C@H](C)C(=O)N[C@@H](Cc2ccccc2)C(=O)N(C)[C@@H](CC(C)C)C(=O)N[C@@H](COC(C)(C)C)C(=O)N[C@@H](Cc2ccccc2)C(=O)N2CCC[C@H]2C(=O)N[C@@H]([C@@H](C)O)C(=O)N[C@@H](CC(C)C)C(=O)N1C [DP-815] (cyclo(F[NMeL]S(tBu)FPTL[NMeI]G[β3hA][dNMeA])),104,42,–,–,–
CC[C@H](C)[C@H]1C(=O)N(C)[C@@H](C)C(=O)N(C)[C@@H](CC(C)C)C(=O)N[C@@H](COC(C)(C)C)C(=O)N(C)[C@@H](CC(C)C)C(=O)N[C@@H](C)CC(=O)N(C)[C@@H](C)C(=O)N(C)[C@@H](Cc2ccccc2)C(=O)N[C@@H](C)C(=O)N(C)[C@@H](CC(C)C)C(=O)N[C@@H]([C@@H](C)O)C(=O)N1C [DP-816] (cyclo(A[NMeL]T[NMeI][NMeA][NMeL]S(tBu)[NMeL][β3hA][NMeA][NMeF])),–,–,192,–,32
CC[C@H](C)[C@H]1C(=O)N(C)[C@@H](C)C(=O)N(C)[C@@H](CC(C)C)C(=O)N[C@@H](COC(C)(C)C)C(=O)N(C)[C@@H](CC(C)C)C(=O)N[C@@H](C)CC(=O)N(C)[C@@H](C)C(=O)N(C)[C@@H](Cc2ccccc2)C(=O)N[C@@H](CC(C)C)C(=O)N(C)[C@@H](CC(C)C)C(=O)N[C@@H]([C@@H](C)O)C(=O)N1C [DP-817] (cyclo(L[NMeL]T[NMeI][NMeA][NMeL]S(tBu)[NMeL][β3hA][NMeA][NMeF])),–,–,165,–,25
CC(C)C[C@@H]1NC(=O)[C@H](CC(C)C)N(C)C(=O)[C@H](C)NC(=O)[C@H](C(C)C)N(C)C(=O)CN(C)C(=O)[C@H]([C@@H](C)O)NC(=O)[C@H](C)N(C)C(=O)[C@H](CC(C)C)N(C)C(=O)[C@@H](C)NC(=O)C[C@H](C)NC1=O [DP-818] (cyclo(A[NMeL]L[β3hA][dA][NMeL][NMeA]T[Sar][NMeV])),–,–,1,–,2
CC[C@H](C)[C@@H]1NC(=O)[C@H](C)N(C)C(=O)[C@H]([C@@H](C)O)NC(=O)[C@H](C(C)C)N(C)C(=O)[C@@H](C)N(C)C(=O)C[C@H](C)NC(=O)[C@H](Cc2ccccc2)NC(=O)[C@H](C)NC(=O)[C@H](Cc2ccccc2)N(C)C1=O [DP-819] (cyclo(AF[β3hA][dNMeA][NMeV]T[NMeA]I[NMeF])),–,–,134,–,30
CC[C@H](C)[C@H]1C(=O)N[C@@H](COC(C)(C)C)C(=O)N(C)[C@@H](C(C)C)C(=O)N[C@@H](C)CC(=O)N(C)[C@@H](C)C(=O)N(C)[C@@H](Cc2ccccc2)C(=O)N[C@@H](CC(C)C)C(=O)N(C)[C@@H](CC(C)C)C(=O)N[C@@H]([C@@H](C)O)C(=O)N(C)CC(=O)N1C [DP-820] (cyclo(L[NMeL]T[Sar][NMeI]S(tBu)[NMeV][β3hA][NMeA][NMeF])),–,–,511,–,48
CC[C@H](C)[C@H]1C(=O)N[C@@H](COC(C)(C)C)C(=O)N(C)[C@@H](C(C)C)C(=O)N[C@@H](C)CC(=O)N(C)[C@@H](CC(C)C)C(=O)N(C)[C@@H](Cc2ccccc2)C(=O)N[C@@H](CC(C)C)C(=O)N(C)[C@@H](CC(C)C)C(=O)N[C@@H]([C@@H](C)O)C(=O)N(C)CC(=O)N1C [DP-821] (cyclo(L[NMeL]T[Sar][NMeI]S(tBu)[NMeV][β3hA][NMeL][NMeF])),–,–,547,–,62
CCCCCC[C@@H]1NC(=O)[C@H](Cc2ccccc2)N(C)C(=O)[C@H](C)N(C)C(=O)C[C@H](C)NC(=O)[C@H](C(C)C)N(C)C(=O)[C@H](COC(C)(C)C)NC(=O)[C@H](C)N(C)C(=O)CN(C)C(=O)[C@H]([C@@H](C)O)NC(=O)[C@H](CC(C)C)N(C)C1=O [DP-822] (cyclo([Aoc(2)][NMeL]T[Sar][NMeA]S(tBu)[NMeV][β3hA][NMeA][NMeF])),–,–,518,–,37
CC[C@H](C)[C@@H]1NC(=O)[C@H](CC(C)C)N(C)C(=O)[C@H](C)NC(=O)CCCN(C)C(=O)C[C@H](C)NC(=O)[C@H]([C@@H](C)O)NC(=O)[C@H](Cc2ccccc2)NC(=O)[C@H](C(C)C)N(C)C(=O)[C@H](CC(C)C)N(C)C1=O [DP-823] (cyclo(A[NMeL]I[NMeL][NMeV]FT[β3hA][NMeGABA])),–,–,254,–,31
CC[C@H](C)[C@@H]1NC(=O)[C@H](CC(C)C)N(C)C(=O)[C@H](C)NC(=O)CCCN(C)C(=O)C[C@H](C)NC(=O)[C@H]([C@@H](C)O)NC(=O)[C@H](Cc2ccccc2)NC(=O)[C@H](C(C)C)N(C)C(=O)[C@H](Cc2ccccc2)N(C)C1=O [DP-824] (cyclo(A[NMeL]I[NMeF][NMeV]FT[β3hA][NMeGABA])),–,–,501,–,29
CC(C)C[C@@H]1NC(=O)[C@@H](C(C)C)NC(=O)C[C@H](C)NC(=O)[C@H](CC(C)C)N(C)C(=O)[C@H](CC(C)C)N(C)C(=O)[C@H](Cc2ccc(C(F)(F)F)cc2)NC(=O)[C@H](C)N(C)C(=O)[C@H]([C@@H](C)O)NC1=O [DP-825] (cyclo(LT[NMeA][Phe(4-CF3)][NMeL][NMeL][β3hA][dV])),–,–,168,–,39
CC[C@H](C)[C@H]1C(=O)N[C@@H](C)CC(=O)N(C)[C@H](C)C(=O)N(C)[C@@H](CC(C)C)C(=O)N[C@@H]([C@@H](C)O)C(=O)N(C)CC(=O)N[C@@H](COC(C)(C)C)C(=O)N(C)[C@@H](CC(C)C)C(=O)N1C [DP-826] (cyclo([NMeI][β3hA][dNMeA][NMeL]T[Sar]S(tBu)[NMeL])),–,–,213,–,30
